Reference: article PMC9913174, “Potent Inhibition of Macropinocytosis by Niclosamide in Cancer Cells: A Novel Mechanism for the Anticancer Efficacy for the Antihelminthic” (Cancers, 2023)

Biological target: SLC38A5 (Homo sapiens, UniProt Q8WUX1)
Test: inhibition of Li+-stimulated [3H]-serine uptake in HPAF-II and TXBR-100 cells (endogenous transporter)
Format: cell-based

SLC38A5, sequence (Q8WUX1 whole entry): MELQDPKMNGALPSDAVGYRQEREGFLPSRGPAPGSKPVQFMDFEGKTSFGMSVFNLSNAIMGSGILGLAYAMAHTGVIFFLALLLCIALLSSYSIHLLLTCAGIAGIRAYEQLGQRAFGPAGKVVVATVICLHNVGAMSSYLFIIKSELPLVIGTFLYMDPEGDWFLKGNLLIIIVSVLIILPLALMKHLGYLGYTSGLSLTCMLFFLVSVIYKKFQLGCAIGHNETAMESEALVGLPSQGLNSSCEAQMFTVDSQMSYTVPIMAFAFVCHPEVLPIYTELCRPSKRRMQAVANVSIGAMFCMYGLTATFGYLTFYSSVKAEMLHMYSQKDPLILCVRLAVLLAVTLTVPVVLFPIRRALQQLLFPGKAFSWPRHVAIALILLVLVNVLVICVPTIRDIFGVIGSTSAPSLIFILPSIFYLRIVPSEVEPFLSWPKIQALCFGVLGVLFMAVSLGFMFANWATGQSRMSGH

Which IC50 does the source give for `O=C(Nc1ccc([N+](=O)[O-])cc1Cl)c1cc(Cl)ccc1O` [niclosamide] here?
The IC50 was 1000 to 2500 nM.
